Experimental data from US9216968B2, “Heterocyclic derivative and pharmaceutical drug” (NIPPON SHINYAKU CO., LTD., priority 2011, dated 2015).
Where a name gives a salt, the structure may show the parent alone.

Key:
human mPGES-1 = human mPGES-1 (Homo sapiens (Human), UniProt O14684); assay: mPGES-1 inhibiting activity (microsome fractions, PGE2 by HTRF); format: biochemical; settings: microsomes from CHO-K1 cells transfected with human mPGES-1; PGH2 1 μM, 4° C., 60 seconds; read-out: mPGES-1 Inhibition IC50
Procedure: mPGES-1 microsome fractions were prepared from CHO-K1 cells transiently transfected with plasmid encoding the human mPGES-1cDNA. Microsomes were diluted with potassium phosphate buffer containing reduced glutathione (pH7.4), and DMSO containing test compound or DMSO alone was added (such that DMSO final concentration would be 1% in each) and incubated at 4° C. for 20 minutes. Then, the enzymatic reactions were initiated by the addition of PGH2 substrate (final concentration 1 μM) and incubated at 4° C. for 60 seconds. The reaction was terminated by the addition of a citrate solution (final citrate concentration 50 mM) containing ferric chloride (final concentration 1 mg/mL). PGE2 production in the enzyme reaction aliquot was measured using HTRF kit (Cisbio International, catalogue #62P2APEC). The solution free of test compound was used as positive control, and the solution free of test compound and microsome sample was used as negative control. 100% activity was defined as PGE2 production in the positive control minus PGE2 production in negative control. IC50 value was calculated by standard method.

A549 cells = assay: Inhibition of PGE2 production in A549 cell (IL-1β stimulated); format: cell-based, human; settings: Homo sapiens, A549, 24 h, IL-1β 5 ng/well, PGE2 in culture medium
Procedure: Human A549 cells were seeded onto a 96-well plate at 2×10^4 cells/100 μL per well and allowed to incubate overnight. After removing the culture medium and washing with phosphate buffered saline, the culture medium was replaced by RPMI culture medium with 3% FBS containing a DMSO solution containing test compound or DMSO alone (such that DMSO final concentration would be […] in each). After incubation for 60 minutes, IL-1β (5 ng/well) was added and incubated at 37° C. for 24 hours. Then, PGE2 in the culture medium was measured using HTRF kit (Cisbio International, catalogue #62P2APEC), and PGF2α in the culture medium was measured using EIA kit (Cayman Chemical Company, catalogue #516011). The solution free of test compound was used as positive control, and the solution free of test compound and IL-1β was used as negative control. 100% activity was defined as PGE2 and PGF2α production in the positive control minus PGE2 and PGF2α production in the negative control. IC50 value was calculated by standard method.

human mPGES-1, sequence (O14684 whole entry): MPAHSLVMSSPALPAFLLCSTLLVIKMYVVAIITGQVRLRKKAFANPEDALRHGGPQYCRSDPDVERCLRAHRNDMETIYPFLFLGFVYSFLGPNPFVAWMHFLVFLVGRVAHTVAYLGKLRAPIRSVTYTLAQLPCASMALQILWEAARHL

Row | IC50 (human mPGES-1) | IC50 (A549 cells) | Structure (SMILES)
1 | 5.2 nM | 71.7 nM | COCc1nc2c(C(=O)Nc3ccc(C)c(Cl)c3)cc(NC(=O)c3ccccc3C(F)(F)F)cc2[nH]1 [Example 32, N-(3-Chloro-4-methylphenyl)-2-(methoxymethyl)-6-({[2-(trifluoromethyl)phenyl]carbonyl}amino)-1H-benzimidazole-4-carboxamide hydrochloride]
2 | 3 nM | 33.6 nM | COCc1nc2c(C(=O)Nc3ccc4c(c3)CCC4)cc(NC(=O)c3ccccc3C(F)(F)F)cc2[nH]1 [Example 33, N-(2,3-Dihydro-1H-inden-5-yl)-2-(methoxymethyl)-6-({[2-(trifluoromethyl)phenyl]carbonyl}amino)-1H-benzimidazole-4-carboxamide hydrochloride]
3 | 4.9 nM | 27.6 nM | COCc1nc2c(C(=O)Nc3cccc4c3CCCC4)cc(NC(=O)c3ccccc3C(F)(F)F)cc2[nH]1 [Example 34, 2-(Methoxymethyl)-N-(5,6,7,8-tetrahydronaphthalen-1-yl)-6-({[2-(trifluoromethyl)phenyl]carbonyl}amino)-1H-benzimidazole-4-carboxamide hydrochloride]
4 | 20.3 nM | 205 nM | COCc1nc2c(C(=O)Nc3ccccc3F)cc(NC(=O)c3ccccc3C(F)(F)F)cc2[nH]1 [Example 35, N-(2-Fluorophenyl)-2-(methoxymethyl)-6-({[2-(trifluoromethyl)phenyl]carbonyl}amino)-1H-benzimidazole-4-carboxamide]
5 | 147 nM | 234 nM | COCc1nc2c(C(=O)Nc3ccccc3OC)cc(NC(=O)c3ccccc3C(F)(F)F)cc2[nH]1 [Example 36, 2-(Methoxymethyl)-N-(2-methoxyphenyl)-6-({[2-(trifluoromethyl)phenyl]carbonyl}amino)-1H-benzimidazole-4-carboxamide]
6 | 23.3 nM | 265 nM | COCc1nc2c(C(=O)Nc3ccc(OC)cc3)cc(NC(=O)c3ccccc3C(F)(F)F)cc2[nH]1 [Example 37, 2-(Methoxymethyl)-N-(4-methoxyphenyl)-6-({[2-(trifluoromethyl)phenyl]carbonyl}amino)-1H-benzimidazole-4-carboxamide]
7 | 6.6 nM | 17.4 nM | COCc1nc2c(C(=O)Nc3cccc(Br)c3C)cc(NC(=O)c3ccccc3C(F)(F)F)cc2[nH]1 [Example 38, N-(3-Bromo-2-methylphenyl)-2-(methoxymethyl)-6-({[2-(trifluoromethyl)phenyl]carbonyl}amino)-1H-benzimidazole-4-carboxamide]
8 | 10.4 nM | 237 nM | COCc1nc2c(C(=O)NCc3cccc(Cl)c3C)cc(NC(=O)c3ccccc3C(F)(F)F)cc2[nH]1 [Example 39, N-(3-Chloro-2-methylbenzyl)-2-(methoxymethyl)-6-({[2-(trifluoromethyl)phenyl]carbonyl}amino)-1H-benzimidazole-4-carboxamide hydrochloride]
9 | 194 nM | 300 nM | COCc1nc2c(C(=O)Nc3c(F)cccc3F)cc(NC(=O)c3ccccc3C(F)(F)F)cc2[nH]1 [Example 40, N-(2,6-Difluorophenyl)-2-(methoxymethyl)-6-({[2-(trifluoromethyl)phenyl]carbonyl}amino)-1H-benzimidazole-4-carboxamide]
10 | 52.5 nM | 145 nM | COCc1nc2c(C(=O)Nc3cccc(C#N)c3C)cc(NC(=O)c3ccccc3C(F)(F)F)cc2[nH]1 [Example 41, N-(3-Cyano-2-methylphenyl)-2-(methoxymethyl)-6-({[2-(trifluoromethyl)phenyl]carbonyl}amino)-1H-benzimidazole-4-carboxamide]
11 | 28.5 nM | 1860 nM | COCc1nc2c(C(=O)NCc3ncccc3C(F)(F)F)cc(NC(=O)c3ccccc3C(F)(F)F)cc2[nH]1 [Example 42, 2-(Methoxymethyl)-6-({[2-(trifluoromethyl)phenyl]carbonyl}amino)-N-{[3-(trifluoromethyl)pyridin-2-yl]methyl}-1H-benzimidazole-4-carboxamide dihydrochloride]
12 | 70.7 nM | 438 nM | COCc1nc2c(C(=O)Nc3c(C)cccc3Cl)cc(NC(=O)c3ccccc3C(F)(F)F)cc2[nH]1 [Example 43, N-(2-Chloro-6-methylphenyl)-2-(methoxymethyl)-6-({[2-(trifluoromethyl)phenyl]carbonyl}amino)-1H-benzimidazole-4-carboxamide hydrochloride]
13 | 4.1 nM | 1100 nM | Cc1c(Cl)cccc1NC(=O)c1cc(NC(=O)c2ccccc2C(F)(F)F)cc2[nH]c(CC(N)=O)nc12 [Example 44, 2-(2-Amino-2-oxoethyl)-N-(3-chloro-2-methylphenyl)-6-({[2-(trifluoromethyl)phenyl]carbonyl}amino)-1H-benzimidazole-4-carboxamide hydrochloride]
14 | 4.9 nM | 2080 nM | NC(=O)Cc1nc2c(C(=O)NCc3ccccc3C(F)(F)F)cc(NC(=O)c3ccccc3C(F)(F)F)cc2[nH]1 [Example 45, 2-(2-Amino-2-oxoethyl)-N-[2-(trifluoromethyl)benzyl]-6-({[2-(trifluoromethyl)phenyl]carbonyl}amino)-1H-benzimidazole-4-carboxamide hydrochloride]
15 | 26 nM | 231 nM | Cc1c(Cl)cccc1NC(=O)c1cc(NC(=O)c2ccccc2C(F)(F)F)cc2c1ncn2C [Example 46, N-(3-Chloro-2-methylphenyl)-1-methyl-6-({[2-(trifluoromethyl)phenyl]carbonyl}amino)-1H-benzimidazole-4-carboxamide]
16 | 49.9 nM | 146 nM | Cn1cnc2c(C(=O)NCc3ccccc3C(F)(F)F)cc(NC(=O)c3ccccc3C(F)(F)F)cc21 [Example 48, 1-Methyl-N-[2-(trifluoromethyl)benzyl]-6-({[2-(trifluoromethyl)phenyl]carbonyl}amino)-1H-benzimidazole-4-carboxamide]
17 | 100 nM | 375 nM | CCn1cnc2c(C(=O)Nc3cccc(Cl)c3C)cc(NC(=O)c3ccccc3C(F)(F)F)cc21 [Example 49, N-(3-Chloro-2-methylphenyl)-1-ethyl-6-({[2-(trifluoromethyl)phenyl]carbonyl}amino)-1H-benzimidazole-4-carboxamide]
18 | 140 nM | 810 nM | CCn1cnc2c(C(=O)NC3CCCCC3)cc(NC(=O)c3ccccc3C(F)(F)F)cc21 [Example 50, N-Cyclohexyl-1-ethyl-6-({[2-(trifluoromethyl)phenyl]carbonyl}amino)-1H-benzimidazole-4-carboxamide]
19 | 120 nM | 330 nM | CCn1cnc2c(C(=O)NCc3ccccc3C(F)(F)F)cc(NC(=O)c3ccccc3C(F)(F)F)cc21 [Example 51, 1-Ethyl-N-[2-(trifluoromethyl)benzyl]-6-({[2-(trifluoromethyl)phenyl]carbonyl}amino)-1H-benzimidazole-4-carboxamide]
20 | 40.2 nM | 281 nM | Cc1nc2c(C(=O)Nc3cccc(Cl)c3C)cc(NC(=O)c3ccccc3C(F)(F)F)cc2o1 [Example 52, N-(3-Chloro-2-methylphenyl)-2-methyl-6-({[2-(trifluoromethyl)phenyl]carbonyl}amino)-1,3-benzoxazole-4-carboxamide]
21 | 179 nM | 280 nM | Cc1nc2c(C(=O)NCc3ccccc3C(F)(F)F)cc(NC(=O)c3ccccc3C(F)(F)F)cc2o1 [Example 53, 2-Methyl-N-[2-(trifluoromethyl)benzyl]-6-({[2-(trifluoromethyl)phenyl]carbonyl}amino)-1,3-benzoxazole-4-carboxamide]
22 | 23.2 nM | 225 nM | CCc1nc2c(C(=O)Nc3cccc(Cl)c3C)cc(NC(=O)c3ccccc3C(F)(F)F)cc2o1 [Example 54, N-(3-Chloro-2-methylphenyl)-2-ethyl-6-({[2-(trifluoromethyl)phenyl]carbonyl}amino)-1,3-benzoxazole-4-carboxamide]
23 | 2.7 nM | 64.3 nM | CCOc1nc2c(C(=O)Nc3cccc(Cl)c3C)cc(NC(=O)c3ccccc3C(F)(F)F)cc2[nH]1 [Example 55, N-(3-Chloro-2-methylphenyl)-2-ethoxy-6-({[2-(trifluoromethyl)phenyl]carbonyl}amino)-1H-benzimidazole-4-carboxamide]
24 | 7.5 nM | 85 nM | CCOc1nc2c(C(=O)NCc3ccccc3C(F)(F)F)cc(NC(=O)c3ccccc3C(F)(F)F)cc2[nH]1 [Example 56, 2-Ethoxy-N-[2-(trifluoromethyl)benzyl]-6-({[2-(trifluoromethyl)phenyl]carbonyl}amino)-1H-benzimidazole-4-carboxamide]
